# According to patent US8871934B2, “Fluorene compound and pharmaceutical use thereof” (Japan Tobacco Inc., priority 2008, dated 2014):
# Molecular target: human PDHK2 (hPDHK2) (Homo sapiens (Human), UniProt Q15119)
# Test: Inhibitory action of PDHK activity in vitro (kinase reaction, residual PDH activity measured)
# Format: biochemical
# Details: PDHK inhibitory activity, class symbol of IC50
row,Structure (SMILES),IC50 [nM]
1,CCCCN(C)C(=O)c1ccc2c(c1)C(O)(C(F)(F)F)c1ccccc1-2 (stereo not drawn) [compound 308],> 1000
2,OC1(C(F)(F)F)c2ccccc2-c2c(-c3ccsc3)cccc21 (stereo not drawn) [compound 309],> 1000
3,O=C(NCCO)c1ccc2c(c1)C(O)(C(F)(F)F)c1ccccc1-2 (stereo not drawn) [compound 310],> 1000
4,O=C(NCCCO)c1ccc2c(c1)C(O)(C(F)(F)F)c1ccccc1-2 (stereo not drawn) [compound 311],> 1000
5,O=C(NCCCCO)c1ccc2c(c1)C(O)(C(F)(F)F)c1ccccc1-2 (stereo not drawn) [compound 312],> 1000
6,Cc1n[nH]c(-c2cccc3c2-c2ccccc2C3(O)C(F)(F)F)n1 (stereo not drawn) [compound 313],> 1000
7,O=C(O)C1CCN1C(=O)c1ccc2c(c1)C(O)(C(F)(F)F)c1ccccc1-2 (stereo not drawn) [compound 314],> 1000
8,CCNC(=O)c1ccc2c(c1)C(O)(C(F)(F)F)c1ccccc1-2 (stereo not drawn) [compound 315],> 1000
9,CCCNC(=O)c1ccc2c(c1)C(O)(C(F)(F)F)c1ccccc1-2 (stereo not drawn) [compound 316],> 1000
10,OC1(C(F)(F)F)c2ccccc2-c2ccc(Cc3ccccc3)cc21 (stereo not drawn) [compound 317],> 1000
11,O=C(O)CCCCCOc1ccc2c(c1)C(O)(C(F)(F)F)c1ccccc1-2 (stereo not drawn) [compound 318],100 to 1000
12,CN(CCCCO)C(=O)c1ccc2c(c1)C(O)(C(F)(F)F)c1ccccc1-2 (stereo not drawn) [compound 319],> 1000
13,NCCOc1ccc2c(c1)C(O)(C(F)(F)F)c1ccccc1-2 (stereo not drawn) [compound 320],> 1000
14,CNCCOc1ccc2c(c1)C(O)(C(F)(F)F)c1ccccc1-2 (stereo not drawn) [compound 321],> 1000
15,CN(C)CCOc1ccc2c(c1)C(O)(C(F)(F)F)c1ccccc1-2 (stereo not drawn) [compound 322],> 1000
16,CC(C)(C)OC(=O)NCCOc1ccc2c(c1)C(O)(C(F)(F)F)c1ccccc1-2 (stereo not drawn) [compound 323],100 to 1000
17,CN(CCOc1ccc2c(c1)C(O)(C(F)(F)F)c1ccccc1-2)C(=O)OC(C)(C)C (stereo not drawn) [compound 324],100 to 1000
18,CC(=O)NCCOc1ccc2c(c1)C(O)(C(F)(F)F)c1ccccc1-2 (stereo not drawn) [compound 325],> 1000

row,Structure (SMILES),IC50 [nM]
1,CC(=O)N(C)CCOc1ccc2c(c1)C(O)(C(F)(F)F)c1ccccc1-2 (stereo not drawn) [compound 326],100 to 1000
2,CN(CCCO)C(=O)c1ccc2c(c1)C(O)(C(F)(F)F)c1ccccc1-2 (stereo not drawn) [compound 327],> 1000
3,O=C(c1cc(Cl)c2c(c1)C(O)(C(F)(F)F)c1ccccc1-2)N1CC(OCCO)C1 (stereo not drawn) [compound 328],< 100
4,CN(C)C(=O)C1CN(C(=O)c2cc(Cl)c3c(c2)C(O)(C(F)(F)F)c2ccccc2-3)C1 (stereo not drawn) [compound 329],< 100
5,O=C(c1cc(Cl)c2c(c1)C(O)(C(F)(F)F)c1ccccc1-2)N1CC(CO)C1 (stereo not drawn) [compound 330],100 to 1000
6,NCCCOc1ccc2c(c1)C(O)(C(F)(F)F)c1ccccc1-2 (stereo not drawn) [compound 331],> 1000
7,CNCCCOc1ccc2c(c1)C(O)(C(F)(F)F)c1ccccc1-2 (stereo not drawn) [compound 332],100 to 1000
8,CN(C)CCCOc1ccc2c(c1)C(O)(C(F)(F)F)c1ccccc1-2 (stereo not drawn) [compound 333],100 to 1000
9,CC(=O)N(C)CCCOc1ccc2c(c1)C(O)(C(F)(F)F)c1ccccc1-2 (stereo not drawn) [compound 334],100 to 1000
10,OC1(C(F)(F)F)c2ccccc2-c2c(-c3cncnc3)cc(Cl)cc21 (stereo not drawn) [compound 335],< 100
11,NCc1cccc2c1-c1ccccc1C2(O)C(F)(F)F (stereo not drawn) [compound 336],> 1000
12,O=C(c1ccc2c(c1)C(O)(C(F)(F)F)c1ccccc1-2)N1CC(C(=O)N2CCC(O)C2)C1 (stereo not drawn) [compound 337],100 to 1000
13,O=C(c1cc(Cl)c2c(c1)C(O)(C(F)(F)F)c1ccccc1-2)N1CC(O)C1 (stereo not drawn) [compound 339],100 to 1000
14,CC(=O)NCCCOc1ccc2c(c1)C(O)(C(F)(F)F)c1ccccc1-2 (stereo not drawn) [compound 340],> 1000
15,CC(C)(C)OC(=O)c1ccc(-c2cc(-c3cccnc3)c3c(c2)C(O)(C(F)(F)F)c2ccccc2-3)cc1 (stereo not drawn) [compound 341],< 100
16,O=C(O)c1ccc(-c2cc(-c3cccnc3)c3c(c2)C(O)(C(F)(F)F)c2ccccc2-3)cc1 (stereo not drawn) [compound 342],< 100
17,COC(=O)c1cc(-c2cnn(C)c2)c2c(c1)C(O)(C(F)(F)F)c1ccccc1-2 (stereo not drawn) [compound 343],< 100

# Same assay, conditions: class symbol of IC50, read-out: PDHK inhibitory activity
row,Structure (SMILES),IC50 [nM]
1,Cc1cc(C(=O)NCCCCO)cc2c1-c1ccccc1C2(O)C(F)(F)F (stereo not drawn) [compound 338],> 1000

# Same assay, conditions: read-out: PDHK inhibitory activity IC50
row,Structure (SMILES),IC50 [nM]
1,CCCCN(C)C(=O)c1ccc2c(c1)C(O)(C(F)(F)F)c1ccccc1-2 (stereo not drawn) [compound 308],2670
2,OC1(C(F)(F)F)c2ccccc2-c2c(-c3ccsc3)cccc21 (stereo not drawn) [compound 309],> 10000
3,O=C(NCCO)c1ccc2c(c1)C(O)(C(F)(F)F)c1ccccc1-2 (stereo not drawn) [compound 310],> 10000
4,O=C(NCCCO)c1ccc2c(c1)C(O)(C(F)(F)F)c1ccccc1-2 (stereo not drawn) [compound 311],7150
5,O=C(NCCCCO)c1ccc2c(c1)C(O)(C(F)(F)F)c1ccccc1-2 (stereo not drawn) [compound 312],1820
6,Cc1n[nH]c(-c2cccc3c2-c2ccccc2C3(O)C(F)(F)F)n1 (stereo not drawn) [compound 313],> 10000
7,O=C(O)C1CCN1C(=O)c1ccc2c(c1)C(O)(C(F)(F)F)c1ccccc1-2 (stereo not drawn) [compound 314],> 10000
8,CCNC(=O)c1ccc2c(c1)C(O)(C(F)(F)F)c1ccccc1-2 (stereo not drawn) [compound 315],6370
9,CCCNC(=O)c1ccc2c(c1)C(O)(C(F)(F)F)c1ccccc1-2 (stereo not drawn) [compound 316],4480
10,OC1(C(F)(F)F)c2ccccc2-c2ccc(Cc3ccccc3)cc21 (stereo not drawn) [compound 317],2310
11,O=C(O)CCCCCOc1ccc2c(c1)C(O)(C(F)(F)F)c1ccccc1-2 (stereo not drawn) [compound 318],553
12,CN(CCCCO)C(=O)c1ccc2c(c1)C(O)(C(F)(F)F)c1ccccc1-2 (stereo not drawn) [compound 319],3090
13,NCCOc1ccc2c(c1)C(O)(C(F)(F)F)c1ccccc1-2 (stereo not drawn) [compound 320],8760
14,CNCCOc1ccc2c(c1)C(O)(C(F)(F)F)c1ccccc1-2 (stereo not drawn) [compound 321],5380
15,CN(C)CCOc1ccc2c(c1)C(O)(C(F)(F)F)c1ccccc1-2 (stereo not drawn) [compound 322],2500
16,CC(C)(C)OC(=O)NCCOc1ccc2c(c1)C(O)(C(F)(F)F)c1ccccc1-2 (stereo not drawn) [compound 323],362
17,CN(CCOc1ccc2c(c1)C(O)(C(F)(F)F)c1ccccc1-2)C(=O)OC(C)(C)C (stereo not drawn) [compound 324],203
18,CC(=O)NCCOc1ccc2c(c1)C(O)(C(F)(F)F)c1ccccc1-2 (stereo not drawn) [compound 325],1080

row,Structure (SMILES),IC50 [nM]
1,CC(=O)N(C)CCOc1ccc2c(c1)C(O)(C(F)(F)F)c1ccccc1-2 (stereo not drawn) [compound 326],303
2,CN(CCCO)C(=O)c1ccc2c(c1)C(O)(C(F)(F)F)c1ccccc1-2 (stereo not drawn) [compound 327],2940
3,O=C(c1cc(Cl)c2c(c1)C(O)(C(F)(F)F)c1ccccc1-2)N1CC(OCCO)C1 (stereo not drawn) [compound 328],78
4,CN(C)C(=O)C1CN(C(=O)c2cc(Cl)c3c(c2)C(O)(C(F)(F)F)c2ccccc2-3)C1 (stereo not drawn) [compound 329],66
5,O=C(c1cc(Cl)c2c(c1)C(O)(C(F)(F)F)c1ccccc1-2)N1CC(CO)C1 (stereo not drawn) [compound 330],125
6,NCCCOc1ccc2c(c1)C(O)(C(F)(F)F)c1ccccc1-2 (stereo not drawn) [compound 331],1420
7,CNCCCOc1ccc2c(c1)C(O)(C(F)(F)F)c1ccccc1-2 (stereo not drawn) [compound 332],912
8,CN(C)CCCOc1ccc2c(c1)C(O)(C(F)(F)F)c1ccccc1-2 (stereo not drawn) [compound 333],924
9,CC(=O)N(C)CCCOc1ccc2c(c1)C(O)(C(F)(F)F)c1ccccc1-2 (stereo not drawn) [compound 334],674
10,OC1(C(F)(F)F)c2ccccc2-c2c(-c3cncnc3)cc(Cl)cc21 (stereo not drawn) [compound 335],80
11,NCc1cccc2c1-c1ccccc1C2(O)C(F)(F)F (stereo not drawn) [compound 336],> 10000
12,O=C(c1ccc2c(c1)C(O)(C(F)(F)F)c1ccccc1-2)N1CC(C(=O)N2CCC(O)C2)C1 (stereo not drawn) [compound 337],499
13,Cc1cc(C(=O)NCCCCO)cc2c1-c1ccccc1C2(O)C(F)(F)F (stereo not drawn) [compound 338],> 1000
14,O=C(c1cc(Cl)c2c(c1)C(O)(C(F)(F)F)c1ccccc1-2)N1CC(O)C1 (stereo not drawn) [compound 339],177
15,CC(=O)NCCCOc1ccc2c(c1)C(O)(C(F)(F)F)c1ccccc1-2 (stereo not drawn) [compound 340],1590
16,CC(C)(C)OC(=O)c1ccc(-c2cc(-c3cccnc3)c3c(c2)C(O)(C(F)(F)F)c2ccccc2-3)cc1 (stereo not drawn) [compound 341],79
17,O=C(O)c1ccc(-c2cc(-c3cccnc3)c3c(c2)C(O)(C(F)(F)F)c2ccccc2-3)cc1 (stereo not drawn) [compound 342],47
18,COC(=O)c1cc(-c2cnn(C)c2)c2c(c1)C(O)(C(F)(F)F)c1ccccc1-2 (stereo not drawn) [compound 343],53
